± gives the standard deviation of the averaged measurements.
Experiments:
[1] = test system: Danio rerio embryo; assay: EC10 Bladder size_Decrease; higher = less potent; details: exposure time: 4 dpf
Protocol: (§1)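 Zebrafish embryos (UFZ-OBI strain) were exposed from 2 hpf for 48 h (2 dpf) or 96 h (4 dpf) at 28 °C; spontaneous tail coiling was scored at 25 hpf. Morphological features from automated image analysis (FishInspector), heart rate and locomotor response were fitted with drc models. Quantal endpoints were dichotomised at 2.5 SD from controls and fitted with a log-logistic model; heart rate, pigmentation and STC were normalised to the replicate control mean. Betamethasone was tested as betamethasone dipropionate, diflorasone as diflorasone diacetate.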

[2] = test system: Danio rerio embryo; assay: EC50 Bladder size_Decrease; details: exposure time: 4 dpf
Protocol: as §1

[3] = test system: Danio rerio embryo; assay: EC20 Lack of SB; higher = less potent; details: exposure time: 4 dpf
Protocol: as §1

[4] = test system: Danio rerio embryo; assay: EC10 Eye-jaw distance_Decrease; higher = less potent; details: exposure time: 4 dpf
Protocol: as §1

[5] = test system: Danio rerio embryo; assay: EC50 Eye-jaw distance_Decrease; details: exposure time: 4 dpf
Protocol: as §1

[6] = test system: Danio rerio embryo
Protocol: as §1

[7] = test system: Danio rerio embryo; assay: EC20 Body length_Decrease; higher = less potent
Protocol: as §1

[8] = test system: Danio rerio embryo; assay: EC20 LMR dark; higher = less potent; details: exposure time: 4 dpf
Protocol: as §1

[9] = test system: Danio rerio embryo; assay: EC20 Pericard size_Increase; higher = less potent
Protocol: as §1

[10] = test system: Danio rerio embryo; assay: EC20 Curvature_Increase; higher = less potent
Protocol: as §1

[11] = test system: Danio rerio embryo; assay: EC20 Bladder size_Decrease; higher = less potent; details: exposure time: 4 dpf
Protocol: as §1

[12] = test system: Danio rerio embryo; assay: EC50 Yolk sac size_Increase; details: exposure time: 4 dpf
Protocol: as §1

[13] = test system: Danio rerio embryo; assay: EC10 Any effect; higher = less potent
Protocol: as §1

[14] = test system: Danio rerio embryo; assay: EC20 Eye-jaw distance_Decrease; higher = less potent; details: exposure time: 4 dpf
Protocol: as §1

[15] = test system: Danio rerio embryo; assay: EC20 Otolith-eye distance_Decrease; higher = less potent; details: exposure time: 4 dpf
Protocol: as §1

[16] = test system: Danio rerio embryo; assay: EC10 Curvature_Increase; higher = less potent
Protocol: as §1

[17] = test system: Danio rerio embryo; assay: spontaneous tail coiling frequency (coils/min/embryo); higher = more spontaneous movement; details: 25 hpf
Protocol: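 Spontaneous tail coilings of zebrafish embryos exposed from 2 hpf were recorded at 24-25 hpf in 1-min videos and detected by a KNIME workflow from grey-value variance. Betamethasone was tested as the dipropionate, diflorasone as the diacetate.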

[18] = test system: Danio rerio embryo; assay: EC10 Body length_Decrease; higher = less potent
Protocol: as §1

[19] = test system: Danio rerio embryo; assay: EC50 Pericard size_Increase
Protocol: as §1

[20] = test system: Danio rerio embryo; assay: EC10 Otolith-eye distance_Decrease; higher = less potent; details: exposure time: 4 dpf
Protocol: as §1

[21] = test system: Danio rerio embryo; assay: EC20 Yolk sac size_Increase; higher = less potent; details: exposure time: 4 dpf
Protocol: as §1

[22] = test system: Danio rerio embryo; assay: EC50 Curvature_Increase
Protocol: as §1

[23] = test system: Danio rerio embryo; assay: EC10 LMR dark; higher = less potent; details: exposure time: 4 dpf
Protocol: as §1

[24] = test system: Danio rerio embryo; assay: EC10 Pericard size_Increase; higher = less potent
Protocol: as §1

[25] = test system: Danio rerio embryo; assay: EC10 Yolk sac size_Increase; higher = less potent; details: exposure time: 4 dpf
Protocol: as §1

[26] = test system: Danio rerio embryo; details: exposure time: 4 dpf
Protocol: as §1

[27] = test system: Danio rerio embryo; assay: EC50 Body length_Decrease
Protocol: as §1

[28] = test system: Danio rerio embryo; assay: EC50 Otolith-eye distance_Decrease; details: exposure time: 4 dpf
Protocol: as §1

[29] = test system: Danio rerio embryo; assay: EC20 Any effect; higher = less potent
Protocol: as §1

Compound: Cc1ccc(-c2cc(C(F)(F)F)nn2-c2ccc(S(N)(=O)=O)cc2)cc1 [Celecoxib]
- EC10 Bladder size Decrease [1]: 7.91 µM
- EC50 Bladder size Decrease [2]: 8.8 µM
- EC20 Lack of SB [3]: 8.45 µM
- EC10 Eye-jaw distance Decrease [4]: 9.89 µM
- EC50 Eye-jaw distance Decrease [5]: 15.9 µM
- EC50 Any effect ([6]; exposure time: 2 dpf): 13.9 µM
- EC50 Any effect ([6]; exposure time: 4 dpf): 8.13 µM
- EC50 STC bell shape ([6]; exposure time: 25 h): 32.2 µM
- EC20 Body length Decrease ([7]; exposure time: 2 dpf): 21.9 µM
- EC20 Body length Decrease ([7]; exposure time: 4 dpf): 10.2 µM
- EC20 LMR dark [8]: 9.94 µM
- EC20 Pericard size Increase ([9]; exposure time: 2 dpf): 6.48 µM
- EC20 Pericard size Increase ([9]; exposure time: 4 dpf): 9.76 µM
- EC20 Curvature Increase ([10]; exposure time: 2 dpf): 30.5 µM
- EC20 Curvature Increase ([10]; exposure time: 4 dpf): 15 µM
- EC20 Bladder size Decrease [11]: 8.23 µM
- EC50 Yolk sac size Increase [12]: 17.6 µM
- EC10 Any effect ([13]; exposure time: 2 dpf): 4.74 µM
- EC10 Any effect ([13]; exposure time: 4 dpf): 1.62 µM
- EC20 Eye-jaw distance Decrease [14]: 11.8 µM
- EC20 Otolith-eye distance Decrease [15]: 16.8 µM
- EC10 Curvature Increase ([16]; exposure time: 2 dpf): 29.8 µM
- EC10 Curvature Increase ([16]; exposure time: 4 dpf): 12.3 µM
- spontaneous tail coiling frequency ([17]; 5 µM): 2.65 ± 1.1
- spontaneous tail coiling frequency ([17]; 8.3 µM): 2.21
- spontaneous tail coiling frequency ([17]; 10 µM): 2.87
- spontaneous tail coiling frequency ([17]; 16.5 µM): 2.73
- spontaneous tail coiling frequency ([17]; 17.5 µM): 1.93
- spontaneous tail coiling frequency ([17]; 24.8 µM): 2.06
- spontaneous tail coiling frequency ([17]; 25 µM): 2.15
- spontaneous tail coiling frequency ([17]; 32.5 µM): 1.08
- spontaneous tail coiling frequency ([17]; 33 µM): 1.78
- spontaneous tail coiling frequency ([17]; 40 µM): 0.12
- EC10 Body length Decrease ([18]; exposure time: 2 dpf): 20.1 µM
- EC10 Body length Decrease ([18]; exposure time: 4 dpf): 8.57 µM
- EC50 Pericard size Increase ([19]; exposure time: 2 dpf): 13.3 µM
- EC50 Pericard size Increase ([19]; exposure time: 4 dpf): 14.1 µM
- EC10 Otolith-eye distance Decrease [20]: 14.6 µM
- EC20 Yolk sac size Increase [21]: 11.4 µM
- EC50 Curvature Increase ([22]; exposure time: 2 dpf): 31.6 µM
- EC50 Curvature Increase ([22]; exposure time: 4 dpf): 21.1 µM
- EC10 LMR dark [23]: 8.51 µM
- EC10 Pericard size Increase ([24]; exposure time: 2 dpf): 4.26 µM
- EC10 Pericard size Increase ([24]; exposure time: 4 dpf): 7.87 µM
- EC10 Yolk sac size Increase [25]: 8.88 µM
- EC50 LMR dark [26]: 13 µM
- EC50 Body length Decrease ([27]; exposure time: 2 dpf): 25.2 µM
- EC50 Body length Decrease ([27]; exposure time: 4 dpf): 13.6 µM
- EC50 Otolith-eye distance Decrease [28]: 21.4 µM
- EC20 Any effect ([29]; exposure time: 2 dpf): 7.05 µM
- EC20 Any effect ([29]; exposure time: 4 dpf): 2.94 µM

Compound: CCCNCC(O)COc1ccccc1C(=O)CCc1ccccc1 (stereo not given) [Propafenone]
- EC10 Bladder size Decrease [1]: 6.71 µM
- EC50 Bladder size Decrease [2]: 7.8 µM
- EC20 Lack of SB [3]: 6.61 µM
- EC10 Eye-jaw distance Decrease [4]: 17.8 µM
- EC50 Eye-jaw distance Decrease [5]: 20.6 µM
- EC50 Any effect ([6]; exposure time: 4 dpf): 20.6 µM
- EC50 LMR ligth increase ([6]; exposure time: 4 dpf): 19.6 µM
- EC50 Pigmentation increase ([6]; exposure time: 4 dpf): 34.7 µM
- EC50 STC decrease ([6]; exposure time: 25 h): 47.5 µM
- EC20 Body length Decrease ([7]; exposure time: 2 dpf): 34.1 µM
- EC20 LMR dark [8]: 4.28 µM
- EC20 Pericard size Increase ([9]; exposure time: 4 dpf): 18.8 µM
- EC20 Curvature Increase ([10]; exposure time: 2 dpf): 49 µM
- EC20 Bladder size Decrease [11]: 7.09 µM
- EC50 Yolk sac size Increase [12]: 20.5 µM
- EC10 Any effect ([13]; exposure time: 4 dpf): 17.9 µM
- EC20 Eye-jaw distance Decrease [14]: 18.8 µM
- EC20 Otolith-eye distance Decrease [15]: 33.9 µM
- EC10 Curvature Increase ([16]; exposure time: 2 dpf): 27.6 µM
- spontaneous tail coiling frequency ([17]; 8.8 µM): 1.68
- spontaneous tail coiling frequency ([17]; 13.2 µM): 1.86
- spontaneous tail coiling frequency ([17]; 19.8 µM): 1.81 ± 0.55
- spontaneous tail coiling frequency ([17]; 29.6 µM): 0.98
- spontaneous tail coiling frequency ([17]; 44.5 µM): 1.23 ± 1.2
- spontaneous tail coiling frequency ([17]; 66.7 µM): 1
- spontaneous tail coiling frequency ([17]; 100 µM): 0.422 ± 0.49
- spontaneous tail coiling frequency ([17]; 142.9 µM): 0.49
- EC10 Body length Decrease ([18]; exposure time: 2 dpf): 20.8 µM
- EC50 Pericard size Increase ([19]; exposure time: 4 dpf): 20.6 µM
- EC10 Otolith-eye distance Decrease [20]: 33 µM
- EC20 Yolk sac size Increase [21]: 18.4 µM
- EC50 Curvature Increase ([22]; exposure time: 2 dpf): 131 µM
- EC10 LMR dark [23]: 2.43 µM
- EC10 Pericard size Increase ([24]; exposure time: 4 dpf): 17.8 µM
- EC10 Yolk sac size Increase [25]: 17.3 µM
- EC50 LMR dark [26]: 11.2 µM
- EC50 Body length Decrease ([27]; exposure time: 2 dpf): 79.5 µM
- EC50 Otolith-eye distance Decrease [28]: 35.5 µM
- EC20 Any effect ([29]; exposure time: 4 dpf): 18.9 µM

— the supplement of paper PMC9013687
